# Source: patent publication US20250041307A1, “Uses of Bicyclic Compounds for the Treatment of Diseases” (Athira Pharma, Inc., priority 2021, published 2025)
# Tested on: Rat primary cortical neuron cultures
# Assay: Protection from neurotoxicity in vitro (Cell Titer-Glo viability)
# Type: cell-based
# Set-up: key to Protection of cell viability, statistical significance vs. insult control: NS=not significant; +=p<0.05; ++=p<0.01; +++=p<0.001
# Method: HGF/MET signaling activation is expected to protect cells, including neurons, from cell death. […] Hydrogen peroxide (H2O2) treatment produces toxic oxidative stress. Bacteria-derived lipopolysaccharide (LPS) treatment induces inflammatory cell death. Treatment with excess glutamate (Glut) produces excitotoxicity in neuron cultures. Treatment with 1-methyl-4-phenylpyridinium (MPP^+) causes cell death by inhibition of mitochondrial function.
# Rat primary cortical neuron cultures were grown at 37° C., 5% CO2 in Complete Neurobasal Medium supplemented with B27/GDNF/BDNF containing 10% FBS until maturity and were then seeded in 384-well plate at 5,000 cells/well. Cultures were then treated for 15 minutes with 1 uM, 100 nM, 10 nM, 1 nM, or 0.1 nM of compound 1a. Cells were then subjected to individual conditional insults for 24 hours at the following concentrations: H2O2 at 1 uM, LPS at 1 uM, glutamate at 25 uM, MPP+ at 500 uM. All treatments contained recombinant human HGF (R&D Systems) at a concentration of 5 ng/ml.
# To quantify neuroprotection, cell viability was measured with the Cell Titer-Glo Luminescent Cell Viability Assay (Promega, Cat #G7571). Data was normalized to DMSO+HGF control set at 100% cell viability. Statistical analyses for each group (n=4) were performed using one-way ANOVA with Tukey's Multiple comparison test.
# Data is reported as statistical significance vs. insult control, with NS=not significant, +=p<0.05, ++=p<0.01, and +++=p<0.001.
structure (smiles),measurement,setting,value
CCC(C)CN1CC2N(C(=O)c3ccc(C(F)(F)F)cc3)CCC(=O)N2[C@@H](C)C1=O (stereo partly drawn) [Compound 1a],Neuroprotective effect on rat neurons in culture,"broad range of concentrations, entire cohort of insults tested",effective neuroprotective treatment
same,"Protection of cell viability, statistical significance vs. insult control","insult Glutamate (25 uM) 24 hours, 0.1 nM + HGF (5 ng/ml)",+++ (+++=p<0.001)
same,"Protection of cell viability, statistical significance vs. insult control","insult Glutamate (25 uM) 24 hours, 1 nM + HGF (5 ng/ml)",+++ (+++=p<0.001)
same,"Protection of cell viability, statistical significance vs. insult control","insult Glutamate (25 uM) 24 hours, 100 nM (first column so headed) + HGF (5 ng/ml)",+++ (+++=p<0.001)
same,"Protection of cell viability, statistical significance vs. insult control","insult Glutamate (25 uM) 24 hours, 100 nM (second column so headed) + HGF (5 ng/ml)",+++ (+++=p<0.001)
same,"Protection of cell viability, statistical significance vs. insult control","insult Glutamate (25 uM) 24 hours, 1 uM + HGF (5 ng/ml)",+++ (+++=p<0.001)
same,"Protection of cell viability, statistical significance vs. insult control","insult H2O2 (1 uM) 24 hours, 0.1 nM + HGF (5 ng/ml)",+++ (+++=p<0.001)
same,"Protection of cell viability, statistical significance vs. insult control","insult H2O2 (1 uM) 24 hours, 1 nM + HGF (5 ng/ml)",+++ (+++=p<0.001)
same,"Protection of cell viability, statistical significance vs. insult control","insult H2O2 (1 uM) 24 hours, 100 nM (first column so headed) + HGF (5 ng/ml)",+++ (+++=p<0.001)
same,"Protection of cell viability, statistical significance vs. insult control","insult H2O2 (1 uM) 24 hours, 100 nM (second column so headed) + HGF (5 ng/ml)",+++ (+++=p<0.001)
same,"Protection of cell viability, statistical significance vs. insult control","insult H2O2 (1 uM) 24 hours, 1 uM + HGF (5 ng/ml)",+++ (+++=p<0.001)
same,"Protection of cell viability, statistical significance vs. insult control","insult LPS (1 uM) 24 hours, 0.1 nM + HGF (5 ng/ml)",+++ (+++=p<0.001)
same,"Protection of cell viability, statistical significance vs. insult control","insult LPS (1 uM) 24 hours, 1 nM + HGF (5 ng/ml)",NS
same,"Protection of cell viability, statistical significance vs. insult control","insult LPS (1 uM) 24 hours, 100 nM (first column so headed) + HGF (5 ng/ml)",+++ (+++=p<0.001)
same,"Protection of cell viability, statistical significance vs. insult control","insult LPS (1 uM) 24 hours, 100 nM (second column so headed) + HGF (5 ng/ml)",+++ (+++=p<0.001)
same,"Protection of cell viability, statistical significance vs. insult control","insult LPS (1 uM) 24 hours, 1 uM + HGF (5 ng/ml)",+++ (+++=p<0.001)
same,"Protection of cell viability, statistical significance vs. insult control","insult MPP+ (500 uM) 24 hours, 0.1 nM + HGF (5 ng/ml)",+++ (+++=p<0.001)
same,"Protection of cell viability, statistical significance vs. insult control","insult MPP+ (500 uM) 24 hours, 1 nM + HGF (5 ng/ml)",+++ (+++=p<0.001)
same,"Protection of cell viability, statistical significance vs. insult control","insult MPP+ (500 uM) 24 hours, 100 nM (first column so headed) + HGF (5 ng/ml)",+++ (+++=p<0.001)
same,"Protection of cell viability, statistical significance vs. insult control","insult MPP+ (500 uM) 24 hours, 100 nM (second column so headed) + HGF (5 ng/ml)",+++ (+++=p<0.001)
same,"Protection of cell viability, statistical significance vs. insult control","insult MPP+ (500 uM) 24 hours, 1 uM + HGF (5 ng/ml)",+++ (+++=p<0.001)
